According to ChEMBL document CHEMBL1201862, “PubChem BioAssay data set” (2004):
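48-hour exposure; five concentrations; linearly interpolated endpoints. Here, GI50 denotes the concentration required for 50% inhibition of growth.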 Active and inactive are the calls of the source. Rule as the data show it: active = GI50 up to about 1.1 µM and inactive = higher.

Legend:
Experiment in all cases: growth of human tumour cells (NCI), 48 h
ACHN = test system: ACHN
CAKI-1 = test system: CAKI-1
EKVX = test system: EKVX
HCC 2998 = test system: HCC 2998
HOP-62 = test system: HOP-62
HOP-92 = test system: HOP-92
IGROV-1 = test system: IGROV-1
K562 = test system: K562
M14 = test system: M14
MCF7 = test system: MCF7
Malme-3M = test system: Malme-3M
NCI-H23 = test system: NCI-H23
OVCAR-4 = test system: OVCAR-4
OVCAR-5 = test system: OVCAR-5
OVCAR-8 = test system: OVCAR-8
RPMI-8226 = test system: RPMI-8226
SK-MEL-5 = test system: SK-MEL-5
UACC-257 = test system: UACC-257
UO-31 = test system: UO-31
NCI-H522 = test system: NCI-H522

Measured: GI50

COC(=O)N1CC2(CO)C3CC=C(C(=O)Nc4ccccc4Br)C2C1C3Br (stereo not given)
inactive: ACHN > 50 µM | CAKI-1 > 50 µM | EKVX > 50 µM | HCC 2998 > 50 µM | HOP-62 > 50 µM | HOP-92 > 50 µM | IGROV-1 > 50 µM | K562 > 50 µM | M14 > 50 µM | MCF7 > 50 µM | Malme-3M > 50 µM | NCI-H23 > 50 µM | OVCAR-4 > 50 µM | OVCAR-5 > 50 µM | OVCAR-8 > 50 µM | RPMI-8226 > 50 µM | SK-MEL-5 > 50 µM | UACC-257 > 50 µM | UO-31 > 50 µM

O=C1NCC2(CCN(CC3COc4ccccc4O3)CC2)N1c1ccccc1 (stereo not given)
inactive: ACHN > 100 µM | CAKI-1 > 100 µM | EKVX > 100 µM | HCC 2998 > 100 µM | HOP-62 > 100 µM | IGROV-1 > 100 µM | K562 80.4 µM | M14 > 100 µM | MCF7 > 100 µM | Malme-3M > 100 µM | NCI-H23 > 100 µM | NCI-H522 > 100 µM | OVCAR-4 > 100 µM | OVCAR-5 > 100 µM | OVCAR-8 > 100 µM | RPMI-8226 > 100 µM | SK-MEL-5 > 100 µM | UACC-257 > 100 µM | UO-31 > 100 µM

CCCCCCCCCCCCCCCCCCNC(=S)NC=C1C(=O)c2ccccc2C1=O
inactive: ACHN 10.9 µM | CAKI-1 15.5 µM | EKVX 13 µM | HCC 2998 2.13 µM | HOP-62 9.86 µM | HOP-92 3 µM | IGROV-1 1.4 µM | M14 10.3 µM | MCF7 12 µM | Malme-3M 14.7 µM | NCI-H23 15.6 µM | OVCAR-5 13.4 µM | OVCAR-8 13.2 µM | RPMI-8226 14.2 µM | SK-MEL-5 18.2 µM | UACC-257 17.9 µM | UO-31 10.3 µM

S=C(N1CCN(c2ccc(Cl)c(Cl)c2)CC1)N1CCN(c2ccc(Cl)c(Cl)c2)CC1
inactive: ACHN 14.4 µM | CAKI-1 7.4 µM | EKVX 3.38 µM | HCC 2998 13.7 µM | HOP-62 12.5 µM | IGROV-1 10.7 µM | K562 12.2 µM | M14 15.6 µM | MCF7 11.7 µM | Malme-3M 14.2 µM | NCI-H23 15.3 µM | NCI-H522 10.9 µM | OVCAR-4 13.7 µM | OVCAR-5 19.6 µM | OVCAR-8 14.8 µM | RPMI-8226 18 µM | SK-MEL-5 15.1 µM | UACC-257 17.1 µM | UO-31 13.1 µM

c1ccc2c(c1)nc1n2CSCC1
inactive: ACHN > 100 µM | CAKI-1 > 100 µM | EKVX > 100 µM | HCC 2998 > 100 µM | HOP-62 > 100 µM | HOP-92 > 100 µM | IGROV-1 > 100 µM | K562 > 100 µM | M14 > 100 µM | MCF7 > 100 µM | NCI-H23 > 100 µM | OVCAR-4 > 100 µM | OVCAR-5 > 100 µM | OVCAR-8 > 100 µM | RPMI-8226 > 100 µM | SK-MEL-5 > 100 µM | UACC-257 > 100 µM | UO-31 > 100 µM

CC(=O)/C(=C/n1c(=S)sc2ccccc21)C(=O)Nc1ccccc1C
inactive: ACHN > 100 µM | CAKI-1 48 µM | EKVX > 100 µM | HCC 2998 > 100 µM | HOP-62 > 100 µM | HOP-92 41.1 µM | IGROV-1 59.8 µM | M14 > 100 µM | MCF7 > 100 µM | NCI-H23 > 100 µM | OVCAR-4 > 100 µM | OVCAR-5 > 100 µM | OVCAR-8 > 100 µM | SK-MEL-5 39.7 µM | UACC-257 > 100 µM | UO-31 79.6 µM

Cc1ccc(C)n1-n1c(Cc2ccccc2)n[nH]c1=O
inactive: ACHN > 100 µM | CAKI-1 > 100 µM | EKVX 61.7 µM | HCC 2998 > 100 µM | HOP-62 > 100 µM | IGROV-1 > 100 µM | K562 > 100 µM | M14 > 100 µM | MCF7 > 100 µM | Malme-3M > 100 µM | NCI-H522 49.2 µM | OVCAR-4 > 100 µM | OVCAR-5 > 100 µM | OVCAR-8 > 100 µM | RPMI-8226 91.2 µM | SK-MEL-5 > 100 µM | UACC-257 46 µM | UO-31 > 100 µM

Cn1cc(C=C(C#N)C#N)c(=O)n(C)c1=O
inactive: ACHN > 100 µM | CAKI-1 > 100 µM | EKVX > 100 µM | HOP-62 > 100 µM | HOP-92 > 100 µM | IGROV-1 > 100 µM | M14 > 100 µM | MCF7 > 100 µM | NCI-H23 > 100 µM | NCI-H522 37.6 µM | OVCAR-4 > 100 µM | OVCAR-5 > 100 µM | OVCAR-8 > 100 µM | RPMI-8226 52 µM | SK-MEL-5 > 100 µM | UACC-257 > 100 µM | UO-31 > 100 µM

O=c1cc(CN2CCCCC2)nc2ccc3c(O)cc(CN4CCCCC4)nc3n12
inactive: ACHN > 100 µM | CAKI-1 > 100 µM | EKVX > 100 µM | HCC 2998 > 100 µM | HOP-62 > 100 µM | HOP-92 26.2 µM | IGROV-1 > 100 µM | K562 > 100 µM | M14 > 100 µM | MCF7 > 100 µM | NCI-H23 > 100 µM | OVCAR-4 > 100 µM | OVCAR-5 > 100 µM | OVCAR-8 > 100 µM | RPMI-8226 > 100 µM | SK-MEL-5 > 100 µM | UACC-257 88.9 µM | UO-31 > 100 µM

CCOC(=O)C(C)c1nc2cc(F)c(F)cc2[nH]c1=O (stereo not given)
inactive: ACHN > 100 µM | CAKI-1 > 100 µM | EKVX > 100 µM | HCC 2998 > 100 µM | HOP-62 > 100 µM | HOP-92 > 100 µM | K562 > 100 µM | M14 > 100 µM | MCF7 > 100 µM | Malme-3M > 100 µM | NCI-H23 > 100 µM | OVCAR-4 > 100 µM | OVCAR-5 > 100 µM | OVCAR-8 > 100 µM | RPMI-8226 > 100 µM | SK-MEL-5 > 100 µM | UACC-257 > 100 µM | UO-31 > 100 µM

CCOC(=O)/C(=N\Nc1ccc(-n2c(C)nc3ccc(Br)cc3c2=O)cc1)C(C)=O
inactive: ACHN 93.1 µM | CAKI-1 > 100 µM | EKVX 72.1 µM | HOP-62 42.8 µM | HOP-92 38 µM | IGROV-1 > 100 µM | K562 35.2 µM | M14 62.4 µM | MCF7 50.4 µM | NCI-H23 69.5 µM | OVCAR-5 > 100 µM | OVCAR-8 55.2 µM | RPMI-8226 16.4 µM | SK-MEL-5 13.1 µM | UACC-257 84.5 µM | UO-31 29.8 µM
